Patent publication US4309425A (priority 1980, dated 1982)

Tests used:
Pythium = Pythium infested soil test, cotton; format: in vivo; conditions: 1.5 kg/ha, 8 days
Text: Pythium infested soil was placed in a 900 cc cup. Compounds of this invention were mixed at a rate of 1.5 kg/ha in a section 2" wide×2" deep×4" long to simulate an in-the-row application. Five cotton seeds were planted in the treated soil. After 8 days, the cotton plants were removed and rated for disease control.

two-spotted mites = two-spotted mites on bean plants, spray, mortality after two days; format: in vivo; conditions: Tetranychus urticae, 48 h, read-out: % Mortality (2 days); for mortality at 0.00025 %: spray concentration .00025%; for mortality at 0.0005 %: spray concentration .0005%; for mortality at 0.001 %: spray concentration .001%
Description: Mortality was evaluated two days after spraying.
Mortality after two days is set forth below.

[1] = system: organo-phosphorous resistant two-spotted spider mites; test: organo-phosphorous resistant two-spotted spider mites on bean plants, spray, mortality after two days; conditions: Tetranychus urticae, 48 h, read-out: % Mortality (2 days)
[2] = system: bean aphids (Aphis fabae); test: bean aphids on nasturtium leaves, spray; format: in vivo; conditions: 24 hours, read-out: 24 Hours Evaluation (% Kill)
Description: Stems of nasturtium leaves infested with bean aphids (Aphis fabae) were placed in individual vials of water. The leaves were sprayed to run-off with a series of suspensions of N-[N-[2-chloro-5-(trifluoromethyl)phenyl]-N-[2,4-dinitro-6-(trifluoromethyl)-phenyl]aminothio]-N,4-dimethylbenzenesulfonamide. Suspensions were prepared by dissolving 50 mg of the compound in 10 ml of acetone, adding 1 ml of 1% methocel 15, and diluting to volume with Duponol®:water at 1:3000. Evaluations with respect to % kill 24 hours later are set forth below.

mosquito larvae = mosquito larvae test (failure to become adults); format: in vivo; conditions: 27°-30°, continuous light
Description: Twenty-five newly hatched mosquito larvae were placed in 25 ml of distilled water in 4 oz glass jars, and 10 mg diet, consisting of 2 parts liver powder and 1 part brewer's yeast, was added.

Phytophthora infestans [3] = test: whole plant or invertebrate; format: in vivo; conditions: in Solanum lycopersicum, 96 h, read-out: % control tomato late blight in a residual wash-off test
Venturia inaequalis = test: apple scab preventive test; format: in vivo; conditions: 10-12 days
Description: Compounds of this invention are dissolved in acetone in an amount equal to 6% of the final volume and then suspended at a concentration of 20 ppm in purified water containing 25 ppm of the surfactant Alkanol® XC (sodium alkyl naphthalene sulfonate). This suspension is sprayed to the point of run-off on apple seedlings. The following day, the plants are inoculated with a spore suspension of the fungus Venturia inaequalis and incubated in a growth room for 10-12 days. Disease ratings are then made. […] Phytotoxicity in the form of foliar burn was observed on some of the plants in association with disease control.

Rhizopus = test: Rhizopus-corn meal mixture overspray test; conditions: 168 h, 100 ppm, 20° C., 7 days, read-out: % control Rhizopus
Description: Compounds of this invention were dissolved in acetone in an amount equal to 6% of final volume and then suspended at a concentration of 100 ppm in purified water containing 500 ppm of the surfactant Alkanol® XC (sodium alkyl naphthalene sulfonate). This solution was oversprayed on a Rhizopus-corn meal mixture in 6 cm aluminum cups. The sprayed plates were placed in a closed plastic bag, stored at 20° C. for 7 days, and then rated.
The untreated cups were completely covered with Rhizopus mycelial growth, but the treated cups were mostly free of growth by this disease-causing organism.

[4] = system: adult cotton boll weevils (Anthonomus grandis); test: adult cotton boll weevils spray test; format: in vivo; conditions: 1% acetone solution, 24 hours
Description: Five adult cotton boll weevils (Anthonomus grandis) were confined in a 4-oz. wide mouth jar. These were sprayed with a 1% acetone solution of the indicated compounds. Percent mortality after 24 hours is set forth below.

adult houseflies = adult houseflies spray test; format: in vivo, housefly; conditions: Musca domestica; 1% acetone solutions, 24 hours
Text: Twenty adult houseflies were confined in each of several cylindrical stainless steel cages (7.5 cm D×4 cm high) with wire screens of the ends. These were sprayed with 1% acetone solutions of the indicated compounds.

[5] = system: red-legged grasshoppers (Melanoplus femurrubrum); test: red-legged grasshoppers spray test; format: in vivo; conditions: 10 ppm in acetone, 48 hours
Description: Five red-legged grasshoppers (Melanoplus femurrubrum) were confined in each of several cylindrical stainless steel cages (7.5 cm D×4 cm high) with wire screens at the end. These were sprayed with 10 ppm concentration of the indicated compounds in acetone solution. Percent mortality after 48 hours is recorded below.

Phytophthora infestans [6] = format: in vivo; conditions: 20 ppm, 4 days
[7] = system: brown dog ticks (Rhipicephalus sanguineus); test: brown dog ticks spray test; format: in vivo; conditions: 48 h, 12.5 ppm in acetone, forty eight hours
Description: Four-ounce wide mouth jars, each containing 10 brown dog ticks (Rhipicephalus sanguineus), were sprayed with 12.5 ppm concentration of the indicated compounds in acetone solution. The ticks were confined with caps which were also sprayed. Forty eight hours later, percent mortality was determined.

SMILES	% control Pythium (Pythium) [%]	mortality at 0.00025 % (two-spotted mites) [%]	mortality at 0.0005 % (two-spotted mites) [%]	mortality at 0.001 % (two-spotted mites) [%]	mortality at 0.0005 % [1] [%]	mortality at 0.001 % [1] [%]	mortality at 0.002 % [1] [%]	mortality at 0.005 % ([2]; spray concentration 0.005%) [%]	mortality at 0.1 % ([2]; spray concentration 0.1%) [%]	EC50 (concentration at which 50% of the initial larvae fail to become adults) (mosquito larvae) [ppm]	pest or weed control at 20 ppm (Phytophthora infestans [3]) [%]	pest or weed control at 20 ppm (Venturia inaequalis) [%]	inhibition of growth at 100 ppm (Rhizopus) [%]	mortality at 1 % [4] [%]	mortality at 1 % (adult houseflies) [%]	mortality at 10 ppm [5] [%]	% control tomato late blight in a preventive test (Phytophthora infestans [6]) [%]	mortality at 12.5 ppm [7] [%]
Cc1ccc(S(=O)(=O)N(C)SN(c2cc(C(F)(F)F)ccc2Cl)c2c([N+](=O)[O-])cc([N+](=O)[O-])cc2C(F)(F)F)cc1	0	100	100	100	93	97	100	100	100	0.00081	100	–	–	–	–	–	–	–
CCCCN(SN(c1cc(C(F)(F)F)ccc1Cl)c1c([N+](=O)[O-])cc([N+](=O)[O-])cc1C(F)(F)F)S(=O)(=O)c1ccccc1C	–	100	100	100	90	89	100	–	–	–	–	100	90	100	100	–	–	–
CCCCN(SN(c1cc(C(F)(F)F)ccc1Cl)c1c([N+](=O)[O-])cc([N+](=O)[O-])cc1C(F)(F)F)S(=O)(=O)c1ccc(C)cc1	0	–	–	–	–	–	–	–	–	–	100	75	–	100	100	100	100	100
